Legend:
allergic rabbits = assay: allergen-induced asthmatic responses and bronchial hyper-responsiveness (BHR) in allergic rabbits; assay type: in vivo, New Zealand White rabbit; conditions: for Asthmatic Response, Early: percent inhibition from control / Asthmatic Response, Late: percent inhibition from control / BHR (bronchial hyper-responsiveness): percent inhibition from control: aerosol 5 mg/ml; for Asthmatic Response, Early: percent inhibition from control: early-phase area under the curve; for Asthmatic Response, Late: percent inhibition from control: late-phase area under the curve; for BHR (bronchial hyper-responsiveness): percent inhibition from control: repeat histamine challenge 24 hour later
Experimental: Experimental Model: Induction of Asthma in Rabbits. New Zealand White Pasturella-free rabbit litter mates were bred and immunized ip within 24 hour of birth with 312 AU dust mite allergen extract [Berkeley Biological, Berkeley, Calif.] in 10% kaolin once every week for one month, then biweekly until the age of 4 months. Mustafa and co-workers used this rabbit model as described in American Journal of Physiology [266, 271-277, 1994]. These allergic animals preferentially produce allergen-specific IgE antibody and typically respond to aeroallergen challenge with an early and late phase asthmatic response and show increased bronchial hyper responsiveness (BHR).
Allergen, Theophylline and Antifolate Challenges: These experiments were carried out as described by Mustafa and co-workers in the Journal, Agents and Actions in 1992 [37, 168-170, 1992 ]. Briefly, allergic rabbits were challenged with ragweed allergen aerosol (10,000 PNU/mL) as described until there was an approximate 50% reduction in dynamic compliance (Cdyn). Pulmonary function was measured at 15 minutes intervals for 6 hours. The rabbit was challenged with indicated antifolates [5 mg/mL, aerosolized for 4 minutes ] followed immediately by the same total dose of allergen. Pulmonary function measurements as described by Mustafa and co-workers in the cited reference were carried out for 6 hours.
To assess the effect of antifolates on allergen-induced changes in the airways, the area under the curve for early and late -phase response was digitalized by computer-assisted plenometry for each rabbit during the six hour time period.

CCRF-CEM = assay: Human Disease Oriented in vitro Antitumor Screen (NCI), total growth inhibition, CCRF-CEM; assay type: cell-based; conditions: Leukemia
Experimental: (§1) Compound 1 was evaluated for its anti-tumor activity using the Human Disease Oriented in vitro Antitumor Screen at the National Cancer Institute.

K562 = assay: Human Disease Oriented in vitro Antitumor Screen (NCI), total growth inhibition, K562; assay type: cell-based; conditions: Leukemia
Experimental: as §1

MOLT-4 = assay: Human Disease Oriented in vitro Antitumor Screen (NCI), total growth inhibition, MOLT-4; assay type: cell-based; conditions: Leukemia
Experimental: as §1

RPMI 8226 = assay: Human Disease Oriented in vitro Antitumor Screen (NCI), total growth inhibition, RPMI 8226; assay type: cell-based; conditions: Leukemia
Experimental: as §1

SR = assay: Human Disease Oriented in vitro Antitumor Screen (NCI), total growth inhibition, SR; assay type: cell-based; conditions: Leukemia
Experimental: as §1

SF 539 = assay: Human Disease Oriented in vitro Antitumor Screen (NCI), total growth inhibition, SF 539; assay type: cell-based; conditions: CNS Cancer
Experimental: as §1

[1] = system: carboxypeptidase derived from Pseudomonad sp
Excerpt: (§2) As part of a continuing program aimed at the development of less toxic and more specific antifolate drugs for the treatment of human cancers, the pteridine ring of the experimental anticancer drug methylene-10-deazaaminopterin [MDAM] was replaced with a quinazoline ring.

[2] = target: T1, human dihydrofolate Reductase (Homo sapiens, UniProt P00374); assay: inhibition of human dihydrofolate reductase; assay type: biochemical; conditions: human enzyme; read-out: I50
T1 sequence (P00374 1-187): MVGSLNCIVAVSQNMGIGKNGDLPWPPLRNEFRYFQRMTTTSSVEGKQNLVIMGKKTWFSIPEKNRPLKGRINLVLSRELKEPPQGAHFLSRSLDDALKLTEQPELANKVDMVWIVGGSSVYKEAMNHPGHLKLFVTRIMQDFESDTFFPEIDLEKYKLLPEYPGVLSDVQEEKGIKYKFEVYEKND
Excerpt: In order to unravel the mechanism of action of 1 and 1 e they were examined as inhibitors of human dihydrofolate Reductase.

[3] = system: rabbit liver aldehyde oxidase; assay: incubation with rabbit liver aldehyde oxidase (conversion to 7-hydroxy derivative); assay type: in vitro ADME
[4] = system: folylpolyglutamate synthetase; assay: evaluation in vitro using folylpolyglutamate synthetase (polyglutamylation); assay type: in vitro ADME
[5] = system: human leukemia and human solid tumor cells; assay: inhibitory activity against the growth of human cancer cells in culture; assay type: cell-based
[6] = system: leukemia cells that are resistant to MTX by virtue of defective polyglutamylation; assay: growth inhibition of MTX-resistant leukemia cells with defective polyglutamylation vs wild type CCRF-CEM; assay type: cell-based; conditions: defective polyglutamylation line compared to wild type MTX sensitive parental CCRF-CEM
Excerpt: as §2

MCF7 = assay: Human Disease Oriented in vitro Antitumor Screen (NCI), total growth inhibition, MCF7; assay type: cell-based; conditions: Breast Cancer
Experimental: as §1

MCF7-ADR-RES = assay: Human Disease Oriented in vitro Antitumor Screen (NCI), total growth inhibition, MCF7-ADR-RES; assay type: cell-based; conditions: Breast Cancer
Experimental: as §1

[7] = system: selected human tumor cells; assay: Human Disease Oriented in vitro Antitumor Screen (NCI), panel as a whole; assay type: cell-based
Experimental: Compound 1 was evaluated for its anti-tumor activity using the Human Disease Oriented in vitro Antitumor Screen at the National Cancer Institute. […] This unexpected finding may be due to the inability of 1 to undergo metabolic transformation.

Row | SMILES | Asthmatic Response, Early: percent inhibition from control (allergic rabbits) [%] | Asthmatic Response, Late: percent inhibition from control (allergic rabbits) [%] | BHR (bronchial hyper-responsiveness): percent inhibition from control (allergic rabbits) [%] | Log 10 TGI (CCRF-CEM) | Log 10 TGI (K562) | Log 10 TGI (MOLT-4) | Log 10 TGI (RPMI 8226) | Log 10 TGI (SR) | Log 10 TGI (SF 539) | removal of the 4-methyleneglutamate moiety by carboxypeptidase [1] | other results
1 | Cn1c(=O)c2[nH]cnc2n(C)c1=O [Theophylline, theophylline] | 45 | 49 | 39 |  |  |  |  |  |  |  | 
2 | CN(Cc1cnc2nc(N)nc(N)c2n1)c1ccc(C(=O)N[C@@H](CCC(=O)O)C(=O)O)cc1 [MTX, methotrexate, reference compound] | 29 | 37 | 32 | -3.77 | -3.3 | -3.55 | -3.66 | -3.25 | -3.66 |  | 
3 | C=C(CC(NC(=O)c1ccc(N(C)Cc2ccc3nc(N)nc(N)c3c2)cc1)C(=O)O)C(=O)O (stereo not shown) [Compound 1d] |  |  |  |  |  |  |  |  |  | failed to remove the 4-methyleneglutamate moiety | 
4 | C=C(CC(NC(=O)c1ccc(CCc2ccc3nc(N)nc(N)c3c2)cc1)C(=O)O)C(=O)O (stereo not shown) [Compound 1, 5,8,10-trideaza-4'-methyleneaminopterin] | 52 | 58 | 47 | < -8.00 | < -8.00 | -7.4 | -7.44 | < -8.00 | -6.3 | failed to remove the 4-methyleneglutamate moiety | IC50 [2]: 0.066 µM; conversion to 7-hydroxy derivative by aldehyde oxidase [3]: completely inert; elaboration to polyglutamates [4]: not capable of elaboration to its polyglutamates; inhibitory activity against the growth of human cancer cells relative to MTX or MDAM [5]: strikingly more active than either MTX or MDAM; killing of human leukemia and solid tumor cells in culture ([5]; therapeutically relevant concentrations): able to kill a large number of human luekemia and human solid tumor cells in culture at therapeutically relevant concentrations; collateral sensitivity: times more sensitive in inhibiting the growth of MTX-resistant leukemia cells [6]: 4-5 times; anti-asthmatic activity (in words) (allergic rabbits; relative to MTX and theophylline): not only superior to MTX but also to the well known anti-asthmatic drug theophylline in both early and late asthmatic responses and bronchial hyper responsiveness (BHR); Log 10 TGI (MCF7): -6.32; Log 10 TGI (MCF7-ADR-RES): -7.26; killing of cancer cells (in words) ([7]; NCI in vitro antitumor screen): able to kill cancer cells with remarkable potency; times more effective than MTX in this panel ([7]; total growth inhibition, NCI panel of Table 2): 1,000-10,000 times

Reference: patent publication US5912251A, “Metabolically inert anti-inflammatory and anti-tumor antifolates” (priority 1998, dated 1999)
